{"source": "patent US7632848B1", "about": "“Medical treatment of muscles by exposure to anesthetic drugs” (priority 2007, dated 2009)", "key": {"[1]": {"test_system": "eye muscle (lateral rectus muscle)", "format": "in vivo, human", "excerpt": "In one embodiment, an eye muscle is selected for treatment. For an eye that is esotropic (turned inward or crossed), the physician will want to strengthen the lateral rectus muscle, which acts to pull the eye outward into better alignment. The surface of the eye is anesthetized with eye drops. A syringe is filled with up to 5.0 cc of bupivacaine, enough to fill the muscle and reach all the muscle fibers. The concentration of the bupivacaine solution is from 0.5% to 3.0%. The volume and concentration are varied depending on the amount of strengthening effect required. The syringe is attached to an injection needle insulated on its shaft. Therefore, the muscle electrical activity is picked up only with the exposed tip of the needle. The needle is attached to a wire leading to an electromyographic (EMG) recorder. A second wire leads to a ground attached to the skin of the patient's body. The eye is moved to a position at which the lateral rectus muscle to be treated is activated electrically as well as physically contracted. As the tip of the needle approaches the muscle area, the electrical activity is picked up and amplified by the EMG recorder as sound. The sound gets louder as the needle tip gets closer to and finally within the muscle. The needle is advanced behind the eye to the end of the muscle, about 3 cm, keeping the needle within the muscle, guided by the amplitude of the recorded sound. This is important, as the drug will anesthetize the nerves and the muscle with injection of the first few drops, thereafter leaving no guide as to position of the needle. The drug solution is injected starting at this deepest point, with continued injection of solution as the needle is withdrawn. In order to get the maximum effect, all the fibers of the muscle must be exposed to the drug. A smaller volume and concentration are applied when a sub-maximum effect is wanted. […] (Scott, A. B., Alexander, D. E., Miller, J. M., 2007, Bupivacaine injection of eye muscles to treat strabismus. Br J. Opthalmol. 91 (2), 146-148) In one case of eye muscle injection, I marked the solution with a contrast agent to show the exact location of the injected drug. […] All the same, the muscle became larger and stronger. This teaches that exposure of the fibers can also be effected by injecting around the muscle to bathe it. All the muscle fibers must be exposed to the drug to provide the maximal effect. Reducing exposure of the muscle fibers to the drug by reducing the volume of solution injected or by using a lower concentration of drug can be expected to provide a lesser effect. […]"}, "[2]": {"test_system": "skeletal muscle fibers", "settings": "in vivo; cited from earlier work"}, "[3]": {"test_system": "extensor digitorum longus muscle", "settings": "rat hind limb, sufficient concentration and volume; cited from earlier work"}}}
{"smiles": "CCCCN1CCCCC1C(=O)Nc1c(C)cccc1C", "note": "(stereo not drawn) [bupivacaine]", "values": [{"measurement": "duration of muscle inactivity from the anesthetic effect", "setting": "[1]; eye muscle injection, up to 5.0 cc, 0.5% to 3.0%", "value": "inactive for a day"}, {"measurement": "eye position and movement after recovery", "setting": "[1]; eye muscle injection, as the muscle enlarges and strengthens", "value": "typically improve"}, {"measurement": "recovery from the myotoxic effect", "setting": "[1]; in vivo", "value": "gradually recovers from the myotoxic effect of the drug over the next week"}, {"measurement": "effect on muscle size and strength", "setting": "[1]; muscle fibers exposed to adequate concentration and volume of drug", "value": "enlarge and become stronger"}, {"measurement": "toxicity to muscle fibers", "setting": "[2]", "value": "irreversible breakdown of the muscle fibers"}, {"measurement": "muscle size after injection", "setting": "[3]", "value": "enlargement of the muscle beyond its original size"}]}
